From patent US20250188069A1, “COMPOUNDS AND METHODS FOR DEGRADING CASEIN KINASE 1 ALPHA” (PIN THERAPEUTICS, INC., priority 2022, published 2025)
pIC50: −log10 of the molar value. Where a name gives a salt, the structure may show the parent alone.

Each compound was assayed on MV-4-11 cells (assay: AML cell viability assay (RealTime-Glo)). Settings: Homo sapiens, MV4-11, 44 h, read-out: Cell viability classification.
Assay type: cell-based

| Compound | pIC50 |
| --- | --- |
| O=C1CCC(N2Cc3c(cccc3N(CCC3CC3)[C@H]3CC[C@H](Nc4ccccn4)CC3)C2=O)C(=O)N1 (stereo partly shown) [Compound 576, 3-{4-[(2-cyclopropylethyl)[(1r,4r)-4-(pyridin-2-ylamino)cyclohexyl]amino]-1-oxo-3H-isoindol-2-yl}piperidine-2,6-dione] | 6.00 to 7.00 |

Same assay, conditions: Homo sapiens, MV4-11; IC50 class; MV-4-11 cells, RealTime-Glo after 44 hrs of treatment (TABLE 1); read-out: Cell viability classification

| Compound | pIC50 |
| --- | --- |
| N[C@H]1CC[C@H](N(CCCC2CCCO2)c2cccc3c2CN(C2CCC(=O)NC2=O)C3=O)CC1 (stereo partly shown) [Compound 346, 3-(4-(((1r,4r)-4-aminocyclohexyl)(3-(tetrahydrofuran-2-yl)propyl)amino)-1-oxoisoindolin-2-yl)piperidine-2,6-dione, HCl] | 6.00 to 7.00 |
| CCCCCN(c1cccc2c1CN(C1CCC(=O)NC1=O)C2=O)[C@H]1CCC[C@H](N)C1 (stereo partly drawn) [Compound 327, 3-(4-(((1S,3S)-3-aminocyclohexyl)(pentyl)amino)-1-oxoisoindolin-2-yl)piperidine-2,6-dione] | > 7.00 |
| NC(=O)[C@H]1CC[C@@H](N(CCC2CC2)c2cccc3c2CN(C2CCC(=O)NC2=O)C3=O)C1 (stereo partly drawn) [Compound 359, (1S,3R)-3-((2-cyclopropylethyl)(2-(2,6-dioxopiperidin-3-yl)-1-oxoisoindolin-4-yl)amino)cyclopentane-1-carboxamide] | > 7.00 |
| N[C@H]1CC[C@H](N(CCC=C2CCOCC2)c2cccc3c2CN(C2CCC(=O)NC2=O)C3=O)CC1 (stereo partly shown) [Compound 344, 3-(4-(((1r,4r)-4-aminocyclohexyl)(3-(tetrahydro-4H-pyran-4-ylidene)propyl)amino)-1-oxoisoindolin-2-yl)piperidine-2,6-dione. Formic Acid] | 6.00 to 7.00 |
| CCCCCN(c1cccc2c1CN(C1CCC(=O)NC1=O)C2=O)[C@H]1CCC[C@@H](N)C1 (stereo partly drawn) [Compound 328, 3-(4-(((1S,3R)-3-aminocyclohexyl)(pentyl)amino)-1-oxoisoindolin-2-yl)piperidine-2,6-dione] | > 7.00 |
| N[C@H]1CC[C@H](N(CCCC2COC2)c2cccc3c2CN(C2CCC(=O)NC2=O)C3=O)CC1 (stereo partly shown) [Compound 347, 3-(4-(((1r,4r)-4-aminocyclohexyl)(3-(oxetan-3-yl)propyl)amino)-1-oxoisoindolin-2-yl)piperidine-2,6-dione] | 6.00 to 7.00 |
| N[C@H]1CC[C@@H](N(CCCC2CCOCC2)c2cccc3c2CN(C2CCC(=O)NC2=O)C3=O)C1 (stereo partly drawn) [Compound 353, 3-(4-(((1R,3S)-3-aminocyclopentyl)(3-(tetrahydro-2H-pyran-4-yl)propyl)amino)-1-oxoisoindolin-2-yl)piperidine-2,6-dione] | 6.00 to 7.00 |
| CNC(=O)[C@H]1CC[C@@H](N(CCCC2CCOCC2)c2cccc3c2CN(C2CCC(=O)NC2=O)C3=O)C1 (stereo partly drawn) [Compound 362, (1S,3R)-3-((2-(2,6-dioxopiperidin-3-yl)-1-oxoisoindolin-4-yl)(3-(tetrahydro-2H-pyran-4-yl)propyl)amino)-N-methylcyclopentane-1-carboxamide] | 6.00 to 7.00 |

Same assay, conditions: Homo sapiens, MV4-11; IC50 class; MV-4-11 cells, RealTime-Glo after 44 hrs of treatment (TABLE 2); read-out: Cell viability classification

| Compound | pIC50 |
| --- | --- |
| NCCCCN(c1cccc2c1CN(C1CCC(=O)NC1=O)C2=O)[C@H]1CC[C@H](CN)CC1 (stereo partly drawn) [Compound 105, 3-(4-((4-aminobutyl)((1R,4R)-4-(aminomethyl)cyclohexyl)amino)-1-oxoisoindolin-2-yl)piperidine-2,6-dione, 2HCl] | 6.00 to 7.00 |
| CC(C)(CN)CCCN(CCCCN)c1cccc2c1CN(C1CCC(=O)NC1=O)C2=O (stereo not shown) [Compound 126, 3-(4-((5-amino-4,4-dimethylpentyl)(4-aminobutyl)amino)-1-oxoisoindolin-2-yl)piperidine-2,6-dione dihydrochloride] | > 7.00 |
| C[C@H]1CC[C@H](N(CCCCN)c2cccc3c2CN(C2CCC(=O)NC2=O)C3=O)CC1 (stereo partly shown) [Compound 109, 3-(4-((4-aminobutyl)((1r,4r)-4-methylcyclohexyl)amino)-1-oxoisoindolin-2-yl)piperidine-2,6-dione hydrochloride] | 6.00 to 7.00 |
| NCCCCN(c1cccc2c1CN(C1CCC(=O)NC1=O)C2=O)[C@H]1CC[C@@H](N)CC1 (stereo partly drawn) [Compound 102, 3-(4-((4-aminobutyl)((1S,4S)-4-aminocyclohexyl)amino)-1-oxoisoindolin-2-yl)piperidine-2,6-dione dihydrochloride] | 6.00 to 7.00 |
| NCCCCN(c1cccc2c1CN(C1CCC(=O)NC1=O)C2=O)[C@H]1CC[C@H](N)CC1 (stereo partly shown) [Compound 103, 3-(4-((4-aminobutyl)((1r,4r)-4-aminocyclohexyl)amino)-1-oxoisoindolin-2-yl)piperidine-2,6-dione, 2HCl] | 6.00 to 7.00 |
| CCCCCN(CCCCNC(=O)CC1CCCCC1)c1cccc2c1CN(C1CCC(=O)NC1=O)C2=O (stereo not shown) [Compound 151, 2-cyclohexyl-N-(4-((2-(2,6-dioxopiperidin-3-yl)-1-oxoisoindolin-4-yl)(pentyl)amino)butyl)acetamide] | < 6.00 |

Same assay, conditions: Homo sapiens, MV4-11; IC50 class; MV-4-11 cells, RealTime-Glo after 44 hrs of treatment (TABLE 4); read-out: Cell viability classification

| Compound | pIC50 |
| --- | --- |
| N[C@H]1CO[C@H]2[C@@H]1OC[C@@H]2N(CCC1CC1)c1cccc2c1CN(C1CCC(=O)NC1=O)C2=O (stereo partly drawn) [Compound 550, 3-(4-{[(3S,3aR,6S,6aR)-6-amino-hexahydrofuro[3,2-b]furan-3-yl](2-cyclopropylethyl)amino}-1-oxo-3H-isoindol-2-yl)piperidine-2,6-dione] | 6.00 to 7.00 |
| O=C1CCC(N2Cc3c(cccc3N(CCC3CC3)[C@H]3CC[C@@H](NCC4(C(F)(F)F)CCC4)CC3)C2=O)C(=O)N1 (stereo partly shown) [Compound 614A, 3-{4-[(2-cyclopropylethyl)[(1s,4s)-4-({[1-(trifluoromethyl)cyclobutyl]methyl}amino)cyclohexyl]amino]-1-oxo-3H-isoindol-2-yl}piperidine-2,6-dione; trifluoro acetate] | < 6.00 |
| O=C1CCC(N2Cc3c(cccc3N(CCCCC(F)(F)F)[C@H]3CC[C@H](NCC4(C(F)(F)F)CC4)CC3)C2=O)C(=O)N1 (stereo partly shown) [Compound 628, 3-(1-oxo-4-{[(1r,4r)-4-({[1-(trifluoromethyl)cyclopropyl]methyl}amino)cyclohexyl](5,5,5-trifluoropentyl)amino}-3H-isoindol-2-yl)piperidine-2,6-dione; trifluoroacetate] | 6.00 to 7.00 |
| O=C1CCC(N2Cc3c(N(CCC4CC4)[C@H]4CC[C@@H](NCC5(C(F)(F)F)CC5)CC4)ccc(F)c3C2=O)C(=O)N1 (stereo partly shown) [Compound 627A, 3-{4-[(2-cyclopropylethyl)[(1s,4s)-4-({[1-(trifluoromethyl)cyclopropyl]methyl}amino)cyclohexyl]amino]-7-fluoro-1-oxo-3H-isoindol-2-yl}piperidine-2,6-dione] | < 6.00 |
| CCN(CC)C(=O)CN[C@H]1CC[C@H](N(CCC2CC2)c2cccc3c2CN(C2CCC(=O)NC2=O)C3=O)CC1 (stereo partly shown) [Compound 562, N,N-diethyl-2-{[(1r,4r)-4-[(2-cyclopropylethyl)[2-(2,6-dioxopiperidin-3-yl)-1-oxo-3H-isoindol-4-yl]amino]cyclohexyl]amino}acetamide] | 6.00 to 7.00 |
| N#CC1(CN[C@H]2CC[C@H](N(CCC3CC3)c3cccc4c3CN(C3CCC(=O)NC3=O)C4=O)CC2)CC1 (stereo partly shown) [Compound 611, 1-({[(1r,4r)-4-[(2-cyclopropylethyl)[2-(2,6-dioxopiperidin-3-yl)-1-oxo-3H-isoindol-4-yl]amino]cyclohexyl]amino}methyl)cyclopropane-1-carbonitrile] | > 7.00 |
| O=C1CCC(N2Cc3c(ccc(F)c3N(CCC3CC3)[C@H]3CC[C@H](NCC4(C(F)(F)F)CC4)CC3)C2=O)C(=O)N1 (stereo partly shown) [Compound 619, 3-(4-((2-cyclopropylethyl)(4-(((1-(trifluoromethyl)cyclopropyl)methyl)amino)cyclohexyl)amino)-5-fluoro-1-oxoisoindolin-2-yl)piperidine-2,6-dione] | 6.00 to 7.00 |
| O=C1CCC(N2Cc3c(cccc3N(CCC3(C(F)(F)F)CC3)[C@H]3CC[C@@H](NC4CC(F)(F)C4)CC3)C2=O)C(=O)N1 (stereo partly shown) [Compound 554A, 3-(4-(((1s,4s)-4-((3,3-difluorocyclobutyl)amino)cyclohexyl)(2-(1-(trifluoromethyl)cyclopropyl)ethyl)amino)-1-oxoisoindolin-2-yl)piperidine-2,6-dione] | 6.00 to 7.00 |

Same assay, conditions: Homo sapiens, MV4-11; IC50 class; MV-4-11 cells, RealTime-Glo after 44 hrs of treatment (TABLE 5); read-out: Cell viability classification

| Compound | pIC50 |
| --- | --- |
| O=C1CCC(N2Cc3c(cccc3N(CCC3CC3)[C@H]3CC[C@@H](N4CC[C@@H](C(F)(F)F)C4)CC3)C2=O)C(=O)N1 (stereo partly drawn) [Compound 713A, 3-(4-((2-cyclopropylethyl)((1S,4s)-4-((R)-3-(trifluoromethyl)pyrrolidin-1-yl)cyclohexyl)amino)-1-oxoisoindolin-2-yl)piperidine-2,6-dione bis(2,2,2-trifluoroacetate)] | < 6.00 |
| O=C1CCC(N2Cc3c(cccc3N(CCC3CC3)[C@H]3CC[C@@H](CNCCC(F)(F)F)CC3)C2=O)C(=O)N1 (stereo partly shown) [Compound 708A, 3-(4-((2-cyclopropylethyl)((1s,4s)-4-(((3,3,3-trifluoropropyl)amino)methyl)cyclohexyl)amino)-1-oxoisoindolin-2-yl)piperidine-2,6-dione] | > 7.00 |
| CN(CCC(F)F)[C@H]1CC[C@@H](N(CCC2CC2)c2cccc3c2CN(C2CCC(=O)NC2=O)C3=O)CC1 (stereo partly shown) [Compound 683A, 3-(4-((2-cyclopropylethyl)((1s,4s)-4-((3,3-difluoropropyl)(methyl)amino)cyclohexyl)amino)-1-oxoisoindolin-2-yl)piperidine-2,6-dione bis(2,2,2-trifluoroacetate)] | 6.00 to 7.00 |
| O=C1CCC(N2Cc3c(cccc3N(CCC3CC3)C3CCC4(CC3)COCCN4)C2=O)C(=O)N1 (stereo not shown) [Compound 679, 3-(4-((2-cyclopropylethyl)(4-oxa-1-azaspiro[5.5]undecan-9-yl)amino)-1-oxoisoindolin-2-yl)piperidine-2,6-dione] | 6.00 to 7.00 |
| O=C1CCC(N2Cc3c(cccc3N(CC3CCC3)[C@H]3CC[C@H](NCCC(F)(F)F)CC3)C2=O)C(=O)N1 (stereo partly shown) [Compound 649, 3-{4-[(cyclobutylmethyl)[(1r,4r)-4-[(3,3,3-trifluoropropyl)amino]cyclohexyl]amino]-1-oxo-3H-isoindol-2-yl}piperidine-2,6-dione trifluoroacetic acid] | 6.00 to 7.00 |
